Assay results as given in patent publication US20180044640A1, “CONTRACTILE CELLULAR CONSTRUCT FOR CELL CULTURE” (Agency for Science, Technology and Research, priority 2015, published 2018).
Like-named read-outs stand apart in the source and are kept apart here. Each block holds one compound with its values, some of them ahead of it.

How the values were obtained:
[1] = tested on: 3D cardiac tissues (hiPSC-derived cardiomyocytes)
Procedure: To generate 3D cardiac tissues, 12-day differentiated cardiac cells were detached from culture wells using accutase (Stem Cell Technologies), suspended in RPMI-B27medium containing Y-27632 (5 uM) to reach a final concentration of 1.5×10^8 cells/mL. Casting molds were prepared by placing the tissue holder and PDMS molds in 96-well culture plates. For each tissue, 12 μL cell suspension was loaded into the cell loading channel. For florescence-labeled cardiac tissue, 12 μL cell suspension was mixed briefly with ˜20 FluoSpheres polystyrene microspheres (diameter 15 μm, Life Technologies) and pipetted into cell loading channels. The 96-well plates were placed in a 37° C., 5% CO2 culture incubator for 2 hours. 0.20 mL of cell culture medium was then added per well for continued culture. After one day of culture, media was changed to RPMI-B27 medium without Y-27632 and changed every day.
Cardiac tissue contractility was assessed based on the recorded video using IMARIS software. The cardiac tissues were labeled with fluorescence beads, as described above. The video was exported as image stacks for IMARIS tracking analysis. The software can identify the contraction and relaxation events based on the relative positions of the florescence beads during the entire tissue beating sequence. These positions were recorded, and the relevant contractility parameters were calculated from the temporal change of these positions.
Toxicity studies were performed using a Zeiss fluorescence microscope, within a closed environment chamber maintaining constant 37° C. temperature and 5% CO2 humidified air for long time lapse imaging of live cells. An experiment design program in Zen software was used to create an automatic measurement program. For chronic drug response, videos were recorded for each well at every 1 h interval.
The videos were recorded at cumulative concentrations 1 hr before measurement, and processed using IMARIS software.

[2] = tested on: Cardiac spheroids; test: Toxicity assay based on ATP activity (CellTiter-Glo 3D cell viability assay); design: species or system human; settings: 1 hr incubation, normalized to drug-free controls
Procedure: Cardiac spheroids were incubated with various concentrations of compounds dissolved in culture medium for 1 hr, and cell viability was subsequently measured by CellTiter-Glo® 3D cell viability assay (Promega), which determines the number of viable cells in culture based on quantitation of the ATP present. Data is normalized to drug-free controls. Data from the same treatment on 3 occasions were averaged to represent the mean ATP measurement.

[3] = tested on: iPSC-derived cardiomyocytes monolayer; type: cell-based; settings: human; for Time at which significant reduced beating speed was observed / Time of total arrest of beating: 2 days
Procedure: The 12-day differentiated cardiomyocytes were detached using accutase and suspended in RPMI-B27 medium containing Y-27632 (5 uM). The cell suspension was mixed with FluoSpheres polystyrene microspheres, and loaded into matrigel or fibronectin coated 384-well microplate (Greiner) or 96-well tissue culture plates at 0.25˜0.30 *10^6cells/50˜100 microspheres/cm^2.
The videos were recorded for each well at every 1 hr interval and processed using IMARIS software.

Concentration at which complete arrest of contraction was observed ([1]; human, 1 h): 10 µM
Compound: C=C[C@H]1C[N@@]2CC[C@H]1C[C@@H]2[C@@H](O)c1ccnc2ccc(OC)cc12 [quinidine]

Concentration at which complete arrest of contraction was observed ([1]; human, 1 h): 50 µM
Compound: CN(CCOc1ccc(CC2SC(=O)NC2=O)cc1)c1ccccn1 (stereo not shown) [rosiglitazone, Rosiglitazone]

Concentration at which complete arrest of contraction was observed ([1]; human, 1 h): 100 µM
Compound: N[C@@H]1[C@H]2CN(c3nc4c(cc3F)c(=O)c(C(=O)O)cn4-c3ccc(F)cc3F)C[C@@H]12 [trovafloxacin]

More lines, now with the values behind:

Compound: CCS(=O)(=O)N(C)[C@H]1c2cc(C#N)ccc2OC(C)(C)[C@@H]1O (racemic) [chromanol 293B]
Concentration at which complete arrest of contraction was observed [1]: 200 µM

Compound: CC1(C)S[C@@H]2[C@H](NC(=O)[C@H](N)c3ccccc3)C(=O)N2[C@H]1C(=O)O [ampicillin, Ampicillin]
Concentration up to which negligible / no significant toxicity was detected (ATP-based cell viability) [2]: ≤ 10000 µM
Concentration up to which negligible beating rate changes were observed ([1]; human, 1 h): up to 1 mM

Compound: CC[C@H]1OC(=O)[C@H](C)[C@@H](O[C@H]2C[C@@](C)(OC)[C@@H](O)[C@H](C)O2)[C@H](C)[C@@H](O[C@@H]2O[C@H](C)C[C@H](N(C)C)[C@H]2O)[C@](C)(O)C[C@@H](C)C(=O)[C@H](C)[C@@H](O)[C@]1(C)O [erythromycin]
Concentration up to which negligible / no significant toxicity was detected (ATP-based cell viability) [2]: up to 500 μM
Concentration at which complete arrest of contraction was observed ([1]; human, 1 h): 10 µM

Compound: CN(C)C(=N)N=C(N)N [metformin]
Change in beating rates [1]: less pronounced changes in beating rates

Compound: N=C(N)c1ccc(OCCCCCOc2ccc(C(=N)N)cc2)cc1 [pentamidine, Pentamidine]
Concentration at which complete arrest of beating was observed ([3]; 1 h): 100 µM
Concentration showing pronounced changes in contraction speed ([3]; 1 h): 10 µM
Time at which significant reduced beating speed was observed ([3]; 5 μM): 28 h
Time of total arrest of beating ([3]; 5 μM): 44 h
Time at which significant reduced beating speed was observed ([3]; 10 μM): 4 h
Time of total arrest of beating ([3]; 10 μM): 30 h

Compound: Cc1c(C)c2c(c(C)c1O)CCC(C)(COc1ccc(CC3SC(=O)NC3=O)cc1)O2 (stereo not shown) [troglitazone]
Concentration at which complete arrest of contraction was observed ([1]; human, 1 h): 50 µM
